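Following 48 hours of exposure in 96-well plates, responses at five concentrations were used to interpolate endpoints linearly. The concentration for 50% growth inhibition is given as GI50. TGI: concentration producing complete growth inhibition.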
Tests used:
Assay in all cases: NCI anticancer screen, dose series, 48 h
786-0 renal = system: 786-0 renal
A498 renal = system: A498 renal
A549 NSCLC = system: A549 NSCLC
ACHN renal = system: ACHN renal
BT-549 breast = system: BT-549 breast
CAKI-1 renal = system: CAKI-1 renal
CCRF-CEM leukemia = system: CCRF-CEM leukemia
COLO 205 colon = system: COLO 205 colon
DU-145 prostate = system: DU-145 prostate
EKVX NSCLC = system: EKVX NSCLC
HCC-2998 colon = system: HCC-2998 colon
HCT-116 colon = system: HCT-116 colon
HCT-15 colon = system: HCT-15 colon
HL-60(TB) leukemia = system: HL-60(TB) leukemia
HOP-62 NSCLC = system: HOP-62 NSCLC
HOP-92 NSCLC = system: HOP-92 NSCLC
HS 578T breast = system: HS 578T breast
HT29 colon = system: HT29 colon
IGROV1 ovarian = system: IGROV1 ovarian
K-562 leukemia = system: K-562 leukemia
KM12 colon = system: KM12 colon
LOX IMVI melanoma = system: LOX IMVI melanoma
M14 melanoma = system: M14 melanoma
MALME-3M melanoma = system: MALME-3M melanoma
MCF7 breast = system: MCF7 breast
MDA-MB-231 breast = system: MDA-MB-231 breast
MDA-MB-435 = system: MDA-MB-435
MOLT-4 leukemia = system: MOLT-4 leukemia
NCI-H226 lung = system: NCI-H226 lung
NCI-H23 lung = system: NCI-H23 lung
NCI-H460 lung = system: NCI-H460 lung
NCI-H522 lung = system: NCI-H522 lung
NCI/ADR-RES ovarian = system: NCI/ADR-RES ovarian
OVCAR-3 ovarian = system: OVCAR-3 ovarian
OVCAR-4 ovarian = system: OVCAR-4 ovarian
OVCAR-5 ovarian = system: OVCAR-5 ovarian
OVCAR-8 ovarian = system: OVCAR-8 ovarian
PC-3 prostate = system: PC-3 prostate
RPMI-8226 leukemia = system: RPMI-8226 leukemia
RXF 393 renal = system: RXF 393 renal
SF-268 CNS = system: SF-268 CNS
SF-295 CNS = system: SF-295 CNS
SF-539 CNS = system: SF-539 CNS
SK-MEL-2 melanoma = system: SK-MEL-2 melanoma
SK-MEL-28 melanoma = system: SK-MEL-28 melanoma
SK-MEL-5 melanoma = system: SK-MEL-5 melanoma
SK-OV-3 ovarian = system: SK-OV-3 ovarian
SN12C renal = system: SN12C renal
SNB-19 CNS = system: SNB-19 CNS
SNB-75 CNS = system: SNB-75 CNS
SR leukemia = system: SR leukemia
SW-620 colon = system: SW-620 colon
T-47D breast = system: T-47D breast
TK-10 renal = system: TK-10 renal
U251 CNS = system: U251 CNS
UACC-257 melanoma = system: UACC-257 melanoma
UACC-62 melanoma = system: UACC-62 melanoma
UO-31 renal = system: UO-31 renal

## NC(=O)c1c(NC(=O)c2ccc(C(F)(F)F)cc2)sc2c1CCC(=O)C2
786-0 renal
  GI50: 3910 nM
  TGI: 32000 nM
A498 renal
  GI50: 5060 nM
  TGI: 19200 nM
A549 NSCLC
  GI50: 3120 nM
  TGI: 15400 nM
ACHN renal
  GI50: 1250 nM
  TGI: 2530 nM
BT-549 breast
  GI50: 569 nM
  TGI: 7210 nM
CAKI-1 renal
  GI50: 750 nM
  TGI: 2430 nM
CCRF-CEM leukemia
  GI50: 266 nM
  TGI: 14000 nM
COLO 205 colon
  GI50: 1550 nM
  TGI: 3930 nM
DU-145 prostate
  GI50: 4810 nM
  TGI: > 100000 nM
EKVX NSCLC
  GI50: 2420 nM
  TGI: 8580 nM
HCC-2998 colon
  GI50: 2490 nM
  TGI: 6950 nM
HCT-116 colon
  GI50: 369 nM
  TGI: 3550 nM
HCT-15 colon
  GI50: 699 nM
  TGI: 2810 nM
HL-60(TB) leukemia
  GI50: 1350 nM
  TGI: 8060 nM
HOP-62 NSCLC
  GI50: 3550 nM
  TGI: 17600 nM
HOP-92 NSCLC
  GI50: 726 nM
  TGI: 3470 nM
HS 578T breast
  GI50: 1890 nM
  TGI: 19300 nM
HT29 colon
  GI50: 1070 nM
  TGI: 5260 nM
IGROV1 ovarian
  GI50: 1230 nM
  TGI: 4350 nM
K-562 leukemia
  GI50: 300 nM
  TGI: > 41300 nM
KM12 colon
  GI50: 1720 nM
  TGI: 7180 nM
LOX IMVI melanoma
  GI50: 391 nM
  TGI: 2240 nM
M14 melanoma
  GI50: 1860 nM
  TGI: 4560 nM
MALME-3M melanoma
  GI50: 1080 nM
  TGI: 3100 nM
MCF7 breast
  GI50: 1370 nM
  TGI: 10100 nM
MDA-MB-231 breast
  GI50: 1020 nM
  TGI: 3980 nM
MDA-MB-435
  GI50: 1950 nM
  TGI: 4750 nM
MOLT-4 leukemia
  GI50: 1070 nM
  TGI: 8320 nM
NCI-H226 lung
  GI50: 2040 nM
  TGI: 4980 nM
NCI-H23 lung
  GI50: 887 nM
  TGI: 9090 nM
NCI-H460 lung
  GI50: 3350 nM
  TGI: 12800 nM
NCI-H522 lung
  GI50: 613 nM
  TGI: 2390 nM
NCI/ADR-RES ovarian
  GI50: 1480 nM
  TGI: 7490 nM
OVCAR-3 ovarian
  GI50: 575 nM
  TGI: 2470 nM
OVCAR-4 ovarian
  GI50: 1940 nM
  TGI: 4830 nM
OVCAR-5 ovarian
  GI50: 1890 nM
  TGI: 6080 nM
OVCAR-8 ovarian
  GI50: 1850 nM
  TGI: 25000 nM
PC-3 prostate
  GI50: 316 nM
  TGI: 1860 nM
RPMI-8226 leukemia
  GI50: 279 nM
  TGI: 1260 nM
RXF 393 renal
  GI50: 874 nM
  TGI: 4240 nM
SF-268 CNS
  GI50: 1480 nM
  TGI: 14400 nM
SF-295 CNS
  GI50: 2170 nM
  TGI: 6010 nM
SF-539 CNS
  GI50: 500 nM
  TGI: 1810 nM
SK-MEL-2 melanoma
  GI50: 3210 nM
  TGI: 11100 nM
SK-MEL-28 melanoma
  GI50: 1140 nM
  TGI: 2820 nM
SK-MEL-5 melanoma
  GI50: 1730 nM
  TGI: 3320 nM
SK-OV-3 ovarian
  GI50: 3030 nM
  TGI: > 28600 nM
SN12C renal
  GI50: 2230 nM
  TGI: 13200 nM
SNB-19 CNS
  GI50: 1310 nM
  TGI: 9920 nM
SNB-75 CNS
  GI50: 1790 nM
  TGI: 5950 nM
SR leukemia
  GI50: 393 nM
  TGI: > 100000 nM
SW-620 colon
  GI50: 379 nM
  TGI: 1960 nM
T-47D breast
  GI50: 545 nM
  TGI: 3340 nM
TK-10 renal
  GI50: 1660 nM
  TGI: 11200 nM
U251 CNS
  GI50: 426 nM
  TGI: 4670 nM
UACC-257 melanoma
  GI50: 1980 nM
  TGI: 5900 nM
UACC-62 melanoma
  GI50: 758 nM
  TGI: 2350 nM
UO-31 renal
  GI50: 645 nM
  TGI: 1900 nM
